# From US11963527B2, “Compounds, compositions, and methods for altering insect and organism behavior” (BASF Corporation, priority 2013, dated 2024)
# Key:
# [1] = test system: honeybees; assay: Honeybee repulsion feeding station experiment, repellent in 50% sucrose solution; format: in vivo; conditions: 2% by weight with 50% sucrose
# Experimental: FIG. 1 describes the feeding station arrangement (A and B) for the honeybee repulsion experiments described herein. As set forth in FIG. 1, panel (A) sets forth the bee cage positions on the left portion of panel (A) with the randomized feeding station positions on the right portion of panel (A). Panel (B) sets forth an alignment of the randomized feeding station positions with a distance of two meters between feeding stations. A total of eight feeding stations were evaluated at a ten meter distance in front of the respective bee hives. The feeding stations were placed two meters apart from one another.
# Honeybees were trained to deep feeders (eight positions), each containing a 50% sucrose solution for one day. After the honeybees were trained to each feeder, the 50% sucrose feeder at randomized positions 1-8 was replaced with a shallow feeder containing a combination of repelling compounds and a 50% sucrose solution according to Table 5. In accordance with FIGS. 5 and 6, 2% by weight of Camphor oil (T4), Ajowan oil (T5), Camphor powder (T6), Rosemary oil (T7), and 2-Decanone (T8) in combination with a 50% sucrose treatment were added to feeders on day two.
# Table 5 describes active agents evaluated for bee repulsion and their randomized feeding station positions. As described in Table 5, T1 (control), T2 (control), T3 (control), T4 (Camphor oil), T5 (Ajowan oil), T6 (Camphor powder), T7 (Rosemary oil), and T8 (2-Decanone).
# FIG. 5 evaluates the number of bees visiting a respective feed station over a time interval. FIG. 6 sets forth the mean number of honeybees visiting feeding station over a period of four hours.
# [2] = Stability test of Poncho 600 with Eugenol, clothianidin content by HPLC; format: physicochemical; conditions: combined with Eugenol; up to 54° C. for seven days
# Experimental: Table 6 describes a stability test with a combination of Eugenol and Poncho evaluated at room temperature, 40° C., and 54° C. at zero time, 3 days, and 7 days as confirmed by high performance liquid chromatography (HPLC).
# [3] = Stability test of Poncho 600 with α-terpineol, clothianidin content by HPLC; format: physicochemical; conditions: combined with alpha-terpineol; up to 54° C. for eight days
# Experimental: Table 7 describes a stability test with a combination of α-terpineol and Poncho 600 evaluated at room temperature, 40° C., and 54° C. at zero time, 2 days, and 8 days as confirmed by HPLC.
SMILES,repellency to honeybees over the full 4 hour assessment period ([1]; 4 hours),repellency to honeybees at 24 hours [1],repellency to honeybees at 24 hours ([1]; listed as 2-Decanone),chemical stability of clothianidin content [2],chemical stability of clothianidin content [3]
"CCCCCCCCC(C)=O [Compound 2-decanone, 2-decanone]",highly repellent,still repellent,exhibited repellency,,
CN/C(=N\[N+](=O)[O-])NCc1cnc(Cl)s1 [clothianidin],,,,exhibited chemical stability,exhibited chemical stability
